Measured values from US20110217713A1 (On-Q-ity, priority 2010, published 2011).

System: non-small cell lung cancer patient specimens (adenocarcinomas and squamous cell carcinoma)
Test: International Adjuvant Lung Trial (IALT): cisplatin-based therapy vs observation, DFS/OS against IHC DNA repair biomarker Q-scores (Cox PH models)
Type: in vivo, human
Description: An immunohistochemical evaluation of DNA Repair Proteins was conducted on a large international patient specimen collection from the IALT trial (International Adjuvant Lung Trial). This clinical trial originally comprised approximately 1867 non-small cell lung cancer patient specimens (adenocarcinomas and squamous cell carcinoma) and was designed to test clinical parameters for patients receiving either cisplatin-based therapy or those considered observation. One problem with testing of biomarkers in general from clinical trials is that the patient population treatments are generally a mixture of several different treatments and combinations of such and so results may be confounded by interactions of various treatments. However, the IALT trial represents pristine treatment arms of cisplatin and observation and thus is relatively free of confounding affects due to treatment variation.
International Adjuvant Lung Cancer Trial (IALT) NSCLC FFPE patient specimens constructed on TMAs (13 total) were stained by IHC for DNA repair biomarkers: ATM, MSH2, ERCC1, p53, pMK2, PARP1, BRCA1, XPF. An average of 603 patients were analyzed for each biomarker. Tumor biomarker nuclear or cytoplasmic levels were determined using digital image user defined macros. Scores were generated based on weighted intensity and quantity of stained cells. In reference to accompanying diagrams in the Powerpoint files, please note that a wide dynamic range achieved during assay development and optimization in commercially available TMAs is translationally achieved when patients comprising this study population are stained, annotated for tumor region and scored by user-defined macros.
Previous studies have utilized standard pathologist-based scoring, thus we chose to optimize the IHC-based assessment of biomarker levels using digital pathology and weighted scoring. This endeavor is undertaken so that for a given population a continuum of scores (herein referred to as Q-scores) with a broad dynamic range may be generated by user defined macros. Here, scoring of individual tumor cells comprising each patient specimen is generated and then patients assembled into a population continuum of scores against which finer cut-points may tested and established rather than crude binning methods as employed in previous studies.
Q-score=10*(% of 10+cells)+9*(% of 9+cells)+8*(% of 8+cells)+7*(% of 7+cells) . . . 1*(% of 1+cells)
Cox PH models adjusted for relevant clinical and stratification variables were used in the univariate analyses of Disease-Free Survival (DFS) and Overall Survival (OS). Initial analyses were conducted using biomarker Q scores as continuous variables against clinical endpoint metrics.

[1] = ERCC1 model, ADENOCARCINOMA, Without variables
[2] = ERCC1 model, SQUAMOUS CELLS, With adjustment variables
[3] = ERCC1 model, SQUAMOUS CELLS, With selected variables
[4] = ERCC1 model, SQUAMOUS CELLS, Without variables
[5] = Mean Q score PMK2 nuclear (PMK2MN), Adenocarcinoma, with adjustment variables
[6] = Mean Q score PMK2 nuclear (PMK2MN), Adenocarcinoma, with selected variables
[7] = Mean Q score PMK2 nuclear (PMK2MN), Adenocarcinoma, without variables
[8] = Mean Q score PMK2 nuclear (PMK2MN), Squamous Cells, with adjustment variables
[9] = Mean Q score PMK2 nuclear (PMK2MN), Squamous Cells, with selected variables
[10] = Mean Q score PMK2 nuclear (PMK2MN), Squamous Cells, without variables
[11] = Mean Q score of PMK2 cytoplasm divided by nuclear (PMK2MCNp), Adenocarcinoma, with adjustment variables
[12] = Mean Q score of PMK2 cytoplasm divided by nuclear (PMK2MCNp), Adenocarcinoma, with selected variables
[13] = Mean Q score of PMK2 cytoplasm divided by nuclear (PMK2MCNp), Adenocarcinoma, without variables
[14] = Mean Q score sum of PMK2 cytoplasm & nuclear (PMK2MCNs), Adenocarcinoma, with adjustment variables
[15] = Mean Q score sum of PMK2 cytoplasm & nuclear (PMK2MCNs), Adenocarcinoma, with selected variables
[16] = Mean Q score sum of PMK2 cytoplasm & nuclear (PMK2MCNs), Adenocarcinoma, without variables
[17] = Mean Q score sum of PMK2 cytoplasm & nuclear (PMK2MCNs), Squamous Cells, with adjustment variables
[18] = Mean Q score sum of PMK2 cytoplasm & nuclear (PMK2MCNs), Squamous Cells, with selected variables
[19] = Mean Q score sum of PMK2 cytoplasm & nuclear (PMK2MCNs), Squamous Cells, without variables
[20] = Overall Survival, MEAN Q SCORE PMK2 CYTOPLASM, Adenocarcinoma, With adjustment variables
[21] = Overall Survival, MEAN Q SCORE PMK2 CYTOPLASM, Adenocarcinoma, With selected variables
[22] = Overall Survival, MEAN Q SCORE PMK2 CYTOPLASM, Adenocarcinoma, Without variables
[23] = Overall Survival, MEAN Q SCORE PMK2 CYTOPLASM, Squamous Cells, With selected variables
[24] = Overall Survival, MEAN Q SCORE PMK2 CYTOPLASM, Squamous Cells, Without variables
[25] = PARP1 model, SQUAMOUS CELLS, With adjustment variables
[26] = PARP1 model, SQUAMOUS CELLS, With selected variables
[27] = PARP1 model, SQUAMOUS CELLS, Without variables
[28] = XPF model, ADENOCARCINOMA, With adjustment variables
[29] = XPF model, ADENOCARCINOMA, With selected variables
[30] = XPF model, ADENOCARCINOMA, Without variables
[31] = XPF model, SQUAMOUS CELLS, With adjustment variables
[32] = XPF model, SQUAMOUS CELLS, With selected variables
[33] = XPF model, SQUAMOUS CELLS, Without variables

With `N.N.[Cl][Pt][Cl]` [cisplatin] the “HazardRatio, Treatment” value (ERCC1 model, ADENOCARCINOMA, With selected variables) was 0.765, the “HazardRatio, ERCC1_Treatment” value [1] was 1.024 and the “HazardRatio, Treatment” value [1] was 1.040. For the same compound, the “HazardRatio, ERCC1_Treatment” value [2] was 1.070, the “HazardRatio, Treatment” value [2] was 0.731 and the “HazardRatio, ERCC1_Treatment” value [3] was 1.052. For the same compound, the “HazardRatio, Treatment” value [3] was 0.781, the “HazardRatio, ERCC1_Treatment” value [4] was 1.054 and the “HazardRatio, Treatment” value [4] was 0.773. For the same compound, the “HazardRatio, PMK2MN_Treatment interaction (Disease Free Survival)” value [5] was 1.077, the “HazardRatio, Treatment (Disease Free Survival)” value [5] was 0.811 and the “HazardRatio, PMK2MN_Treatment interaction (Disease Free Survival)” value [6] was 1.084. The “HazardRatio, Treatment (Disease Free Survival)” value [6] was 0.802, the “HazardRatio, PMK2MN_Treatment interaction (Disease Free Survival)” value [7] was 0.956 and the “HazardRatio, Treatment (Disease Free Survival)” value [7] was 1.146. For the same compound, the “HazardRatio, PMK2MN_Treatment interaction (Disease Free Survival)” value [8] was 1.145, the “HazardRatio, Treatment (Disease Free Survival)” value [8] was 0.737 and the “HazardRatio, PMK2MN_Treatment interaction (Disease Free Survival)” value [9] was 1.145. For the same compound, the “HazardRatio, Treatment (Disease Free Survival)” value [9] was 0.750, the “HazardRatio, PMK2MN_Treatment interaction (Disease Free Survival)” value [10] was 1.111 and the “HazardRatio, Treatment (Disease Free Survival)” value [10] was 0.780. For the same compound, the “HazardRatio, PMK2MCNp_Treatment interaction (Disease Free Survival)” value [11] was 0.000, the “HazardRatio, Treatment (Disease Free Survival)” value [11] was 0.954 and the “HazardRatio, PMK2MCNp_Treatment interaction (Disease Free Survival)” value [12] was 0.000. For the same compound, the “HazardRatio, Treatment (Disease Free Survival)” value [12] was 0.992, the “HazardRatio, PMK2MCNp_Treatment interaction (Disease Free Survival)” value [13] was 0.000 and the “HazardRatio, Treatment (Disease Free Survival)” value [13] was 1.177. The “HazardRatio, Treatment (Disease Free Survival)” value (Mean Q score of PMK2 cytoplasm divided by nuclear (PMK2MCNp), Squamous Cells, with adjustment variables) was 0.612, the “HazardRatio, Treatment (Disease Free Survival)” value (Mean Q score of PMK2 cytoplasm divided by nuclear (PMK2MCNp), Squamous Cells, with selected variables) was 0.645 and the “HazardRatio, Treatment (Disease Free Survival)” value (Mean Q score of PMK2 cytoplasm divided by nuclear (PMK2MCNp), Squamous Cells, without variables) was 0.726. The “HazardRatio, PMK2MCNs_Treatment interaction (Disease Free Survival)” value [14] was 1.041, the “HazardRatio, Treatment (Disease Free Survival)” value [14] was 0.832 and the “HazardRatio, PMK2MCNs_Treatment interaction (Disease Free Survival)” value [15] was 1.044. The “HazardRatio, Treatment (Disease Free Survival)” value [15] was 0.828, the “HazardRatio, PMK2MCNs_Treatment interaction (Disease Free Survival)” value [16] was 0.939 and the “HazardRatio, Treatment (Disease Free Survival)” value [16] was 1.203. The “HazardRatio, PMK2MCNs_Treatment interaction (Disease Free Survival)” value [17] was 1.091, the “HazardRatio, Treatment (Disease Free Survival)” value [17] was 0.751 and the “HazardRatio, PMK2MCNs_Treatment interaction (Disease Free Survival)” value [18] was 1.090. The “HazardRatio, Treatment (Disease Free Survival)” value [18] was 0.766, the “HazardRatio, PMK2MCNs_Treatment interaction (Disease Free Survival)” value [19] was 1.066 and the “HazardRatio, Treatment (Disease Free Survival)” value [19] was 0.798. The “HazardRatio, PMK2MC_Treatrnent” value [20] was 1.001, the “HazardRatio, Treatment” value [20] was 0.883 and the “HazardRatio, PMK2MC_Treatment” value [21] was 0.972. For the same compound, the “HazardRatio, Treatment” value [21] was 0.891, the “HazardRatio, PMK2MC_Treatment” value [22] was 0.639 and the “HazardRatio, Treatment” value [22] was 1.264. For the same compound, the “HazardRatio, PMK2MC_Treatment” value [23] was 1.240, the “HazardRatio, Treatment” value [23] was 0.803 and the “HazardRatio, PMK2MC_Treatment” value [24] was 1.147. The “HazardRatio, Treatment” value [24] was 0.835, the “HazardRatio, PARP1_Treatment” value [25] was 1.082 and the “HazardRatio, Treatment” value [25] was 0.621. For the same compound, the “HazardRatio, PARP1_Treatment” value [26] was 1.062, the “HazardRatio, Treatment” value [26] was 0.687 and the “HazardRatio, PARP1_Treatment” value [27] was 1.107. The “HazardRatio, Treatment” value [27] was 0.572, the “predictive HR, p53” value (SCC, univariate Cox PH, biomarker Q score, DFS primary endpoint, OS secondary, p=0.005, 95% CI 1.035-1.212) was 1.120 and the “predictive HR, ATM” value (SCC, univariate Cox PH, biomarker Q score, DFS primary endpoint, OS secondary, p=0.010, 95% CI 1.046-1.405) was 1.212. For the same compound, the “predictive HR, MSH2” value (SCC, univariate Cox PH, biomarker Q score, DFS primary endpoint, OS secondary, p=0.012, 95% CI 1.044-1.42) was 1.218, the “HazardRatio, Treatment” value [28] was 0.628 and the “HazardRatio, XPF_Treatment” value [28] was 1.179. For the same compound, the “HazardRatio, Treatment” value [29] was 0.689, the “HazardRatio, XPF_Treatment” value [29] was 1.166 and the “HazardRatio, Treatment” value [30] was 0.900. For the same compound, the “HazardRatio, XPF_Treatment” value [30] was 1.080, the “HazardRatio, Treatment” value [31] was 0.813 and the “HazardRatio, XPF_Treatment” value [31] was 1.030. The “HazardRatio, Treatment” value [32] was 0.820, the “HazardRatio, XPF_Treatment” value [32] was 1.035 and the “HazardRatio, Treatment” value [33] was 0.759. The “HazardRatio, XPF_Treatment” value [33] was 1.063.
